For series [1], the system named is SEC receptor. Nature of the series: Binding of fluorescein labeled peptide to hepatoma cells (fluorescent cells). The series is classed as cell-based, human. The method, then:
HuH7, HepG2 (high) and HepG2 (low) cells were plated in six well plates and transfected as described above. Fluorescein labeling was carried out with fluorescein isothiocyanate, as described previously [Mann and Fish (1972) Methods of Enzymology 26:28-42]. Briefly, the C1315 peptide (145 μg) was incubated with 1 mg of fluorescein isothiocyanate for 1 hr at room temperature. Following incubation, 10 mg/ml glycine was added to destroy excess reagent, the pH was adjusted to 6.0 by the addition of 1N HCl and the labeled peptide was then purified on a Sephadex G10 column (Bio-Rad).
Two days following transfection, cells were washed with Ca^2+ /Mg^2+ PBS, incubated with 100 nM fluorescein labeled C1315 peptide and diluted in binding buffer (DMEM containing 50 mM Hepes, 0.1 mg/ml cytochrome c, 0.01% Tween 80, 2 mg/ml bovine serum albumin) at 4° C. Individual cells were imaged on a Zeiss axiovert 35 microscope at an excitation wavelength of 493.5 nm and a measurement wavelength of 530 nm. Digital images were captured by a cooled CCD camera model CH250 for 25 seconds (Photometrics, Ltd., Tucson, Ariz.) and quantified by a Nu 2000 camera controller board (Photometrics) with a Macintosh Quadra 900 configuration. Data was processed with Oncor image software (Oncor Imaging, Rockville, Md.).
Both HuH7 and HepG2 cell lines were transfected with the pCMV lac Z II plasmid coding for the β-galactosidase protein as a complex with the C1315 peptide carrier or using Lipofectin®, as described above; three days after transfection, the cells were harvested and β-galactosidaseactivity was determined. Cells staining blue represent cells expressing β-galactosidase; fluorescent cells represent cells which bound the fluoresceinated C105Y peptide. Cells which were counted as blue or fluorescent were intensely stained. The average % values represent the number of cells which were blue or fluorescent per 100 randomly selected cells. The results represent 6 independent experiments conducted. […]

In the next series the test system is hepatoma cells. Nature of the series: Cell death / viability during transfection of hepatoma cells. The following applies: 10 fold molar excess.
Series [2] has as its system SEC receptor. Nature of the series: 125I-C105Y cell surface SEC receptor binding, Scatchard analysis. The following applies: for Kd: 4° C. Set-up: species or system human. The method, then: Peptide C105Y was radio-iodinated by a modification of the chloramine T method [Hunter and Greenwood (1962) Nature 194:49] as follows. Briefly, approximately 50 μg of the C105Y peptide in 20 μl PBS was mixed with 20 μl chloramine T (120 mg/10 ml) and 1 mCi ^125 I (DuPont-New England Nuclear, Boston, Mass.). The reaction mixture was incubated for 30 seconds at room temperature and then 50 μl of sodium metabisulfite (36 mg/10 ml) was added. The labeled C105Y peptide was purified on a Sephadex G10 column (Bio-Rad) which had been blocked by application of 3 mg/ml BSA in PBS prior to the addition of the iodinated peptide. The specific radioactivity of ^125 I peptide C105Y ranged between 3,500 and 11,700 dpm/ng.
HuH7 cells and two populations of HepG2 cells were studied. Cells were plated in 24 well tissue culture plates, allowed to become confluent, then thoroughly washed with phosphate-buffered saline containing 1 mM CaCl2 and 2.5 mM MgCl2 (Ca^2+ /Mg^2+ PBS) and incubated at 4° C. for 2 h with ^125 I-labeled ligand (e.g., C105Y) at concentrations of 12.5 to 400 nM in the absence or presence of 200 fold excess unlabeled ligand and diluted in binding medium (DMEM containing 50 mM HEPES, 0.1 mg/ml cytochrome c, 0.01% Tween 80, 2 mg/ml bovine serum albumin). The cells were then rinsed in Ca^2+ Mg^2+ PBS, homogenized in 1 N NaOH, and cell-associated radioactivity determined. Non-specific binding was determined by incubating cells with a 200 fold molar excess of cold ligand. Specific binding was defined as the difference between total and non-specific binding. Binding parameters were determined by Scatchard analysis. Binding assays were performed on all three cell lines [HuH7, HepG2 (high), and HepG2 (low)] simultaneously with the same batch of iodinated C105Y peptide so that the proper comparisons could be made.
In FIG. 22, the specific binding (expressed as cpm/one million cells) is plotted against the concentration of iodinated C105Y ppeptide (nM). Traces are shown for the specific binding of ^125 I-C105Y to HuH7 cells (.smallcircle.), HepG2 (high) cells (.quadrature.) and HepG2 (low) cells (.diamond.). Specific binding was determined by subtracting […].

Experimental for total serum cholesterol: Six adult male Watanabe rabbits (2.8-3.2 Kg of bodyweight) were used in these studies. […] In order to introduce the DNA complex into the animal, we perform a single injection of 3-10 ml of the DNA-complex solution (~400-900 mM NaCl) into the marginal ear vein of the rabbit. Approximately 1.5 ml of blood was drawn from the ear artery at 4 p.m. The determination of the concentration of serum cholesterol was performed in the Clinical Laboratory of University Hospitals of Cleveland from 300 μl of serum. At different time points following the introduction of the DNA complex, a rabbit was subjected to a liver biopsy.

In the case of CFLEAIPMSIPPEVKFNKPFVFLIIHRD [C1315], the figures for the “Average % Fluorescent Cells” value in the series with SEC receptor [1] (HepG2(high)), in the series with SEC receptor [1] (HepG2(low)) and with SEC receptor [1] (HuH7) were 20.4 ± 11.2%, 1.8 ± 1.4% and 14.3 ± 4.0%, respectively. Moreover, in the series on hepatoma cells, the “effect of excess free peptide on cell viability” value is recorded as “no effect on cell viability”.

For `CC[C@H](C)C(=O)O[C@H]1C[C@@H](C)C=C2C=C[C@H](C)[C@H](CC[C@@H]3C[C@@H](O)CC(=O)O3)[C@H]21` [lovastatin], the “cholesterol concentration relative to that prior to the first gene transfer” value with total serum cholesterol (rabbit #774, gene transfer followed by 10 mg per day for 10 weeks) was determined as 40%. In addition, the “further reduction in the levels of cholesterol” value with total serum cholesterol (rabbit #774 after gene transfer, 10 mg per day orally for 10 weeks) came out at 20%.

For orientation: Kd means a measure of binding affinity in units of concentration. High values mean lower affinity, low ones higher affinity. Turning to CSIPPEVKFNKPFVYLI [C105Y], in the series on SEC receptor [2], the “binding by HuH7 cells relative to HepG2 (high), more” value was 1.5 fold; the “specific binding by HepG2 (low) cells relative to HepG2 (high) cells, less” value was 7.5 fold; the “specific binding by HepG2 (low) cells relative to HuH7 cells, less” value is recorded as 10 fold. Further, the affinity in the series on SEC receptor [2] (HepG2 (high) cells, Scatchard analysis), expressed as Kd, was 50 nM. This molecule also displayed a Kd in the series on SEC receptor [2] (HepG2 (low) cells) of roughly 22.5 nM. Also, the dissociation constant (Kd) in the series on SEC receptor [2] (HuH7 cells) was roughly 70 nM.
